From ChEMBL document CHEMBL1201862, “PubChem BioAssay data set” (2004)
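Compound exposure: 48 hours, 5 concentrations, 96-well plates. Here, GI50 denotes the concentration required for 50% inhibition of growth.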 The source made the active and inactive calls. No stated cut-off is given here; in the data, active = GI50 up to about 1.1 µM and inactive = higher.

Key:
Experiment in all cases: NCI anticancer screen, dose series, 48 h
[1] = test system: UACC-257
[2] = test system: HOP-92
[3] = test system: A549
[4] = test system: MDA-N
[5] = test system: T47D
[6] = test system: MCF7
[7] = test system: K562
[8] = test system: NCI-H23
[9] = test system: A498
[10] = test system: COLO 205
[11] = test system: SW-620
[12] = test system: SF-539
[13] = test system: NCI/ADR-RES
[14] = test system: HCC 2998
[15] = test system: U-251
[16] = test system: SK-MEL-2
[17] = test system: DU-145
[18] = test system: Malme-3M
[19] = test system: CAKI-1
[20] = test system: UO-31
[21] = test system: SK-MEL-5
[22] = test system: HCT-15
[23] = test system: OVCAR-4
[24] = test system: SNB-75
[25] = test system: PC-3
[26] = test system: CCRF-CEM
[27] = test system: UACC-62
[28] = test system: SF-295
[29] = test system: Hs-578T
[30] = test system: MDA-MB-231
[31] = test system: SK-OV-3
[32] = test system: LOX IMVI
[33] = test system: NCI-H522
[34] = test system: SN12C
[35] = test system: HT-29
[36] = test system: RPMI-8226
[37] = test system: HOP-62
[38] = test system: SF-268
[39] = test system: RXF 393
[40] = test system: IGROV-1
[41] = test system: HL-60
[42] = test system: NCI-H460
[43] = test system: KM12
[44] = test system: M14
[45] = test system: MOLT-4
[46] = test system: TK-10
[47] = test system: MDA-MB-435
[48] = test system: OVCAR-8
[49] = test system: HCT-116
[50] = test system: OVCAR-5
[51] = test system: BT-549
[52] = test system: EKVX
[53] = test system: 786-0
[54] = test system: NCI-H226
[55] = test system: OVCAR-3
[56] = test system: SK-MEL-28
[57] = test system: ACHN
[58] = test system: SNB-19
[59] = test system: SR
[60] = test system: DMS-273

Structure (SMILES): CC(C)NC(=O)CN1CCN(C2=C(Cl)C(=O)c3c(O)ccc(O)c3C2=O)CC1
- GI50 [1]: 1790 nM (inactive)
- GI50 [2]: 2240 nM (inactive)
- GI50 [3]: 8130 nM (inactive)
- GI50 [4]: 1490 nM (inactive)
- GI50 [5]: 1910 nM (inactive)
- GI50 [6]: 1490 nM (inactive)
- GI50 [7]: 341 nM (active)
- GI50 [8]: 1030 nM (active)
- GI50 [9]: 3050 nM (inactive)
- GI50 [10]: 1310 nM (inactive)
- GI50 [11]: 546 nM (active)
- GI50 [12]: 1970 nM (inactive)
- GI50 [13]: 2380 nM (inactive)
- GI50 [14]: 2920 nM (inactive)
- GI50 [15]: 3310 nM (inactive)
- GI50 [16]: 1490 nM (inactive)
- GI50 [17]: 2710 nM (inactive)
- GI50 [18]: 1040 nM (active)
- GI50 [19]: 2170 nM (inactive)
- GI50 [20]: 1030 nM (active)
- GI50 [21]: 2000 nM (inactive)
- GI50 [22]: 693 nM
- GI50 [23]: 1710 nM (inactive)
- GI50 [24]: 3460 nM (inactive)
- GI50 [25]: 1890 nM (inactive)
- GI50 [26]: 293 nM (active)
- GI50 [27]: 1730 nM (inactive)
- GI50 [28]: 7100 nM (inactive)
- GI50 [29]: 2390 nM (inactive)
- GI50 [30]: 1970 nM (inactive)
- GI50 [31]: 10100 nM (inactive)
- GI50 [32]: 650 nM (active)
- GI50 [33]: 1900 nM (inactive)
- GI50 [34]: 1680 nM (inactive)
- GI50 [35]: 1260 nM (inactive)
- GI50 [36]: 1990 nM (inactive)
- GI50 [37]: 7450 nM (inactive)
- GI50 [38]: 1820 nM (inactive)
- GI50 [39]: 1540 nM (inactive)
- GI50 [40]: 2390 nM (inactive)
- GI50 [41]: 187 nM (active)
- GI50 [42]: 7500 nM (inactive)
- GI50 [43]: 6500 nM (inactive)
- GI50 [44]: 1460 nM (inactive)
- GI50 [45]: 360 nM (active)
- GI50 [46]: 2070 nM (inactive)
- GI50 [47]: 1620 nM (inactive)
- GI50 [48]: 861 nM (active)
- GI50 [49]: 1200 nM (inactive)
- GI50 [50]: 2920 nM (inactive)
- GI50 [51]: 1490 nM (inactive)
- GI50 [52]: 3720 nM (inactive)
- GI50 [53]: 2560 nM (inactive)
- GI50 [54]: 21500 nM (inactive)
- GI50 [55]: 1570 nM (inactive)
- GI50 [56]: 1660 nM (inactive)
- GI50 [57]: 2150 nM (inactive)
- GI50 [58]: 13600 nM (inactive)
- GI50 [59]: 148 nM (active)

Structure (SMILES): COc1ccc(N[C@@H]2c3cc4c(cc3C(c3cc(OC)c(O)c(OC)c3)[C@H]3C(=O)OCC32)OCO4)cc1OC (stereo partly specified)
- GI50 [1]: 4210 nM (inactive)
- GI50 [2]: > 100000 nM (inactive)
- GI50 [8]: 297 nM (active)
- GI50 [9]: > 100000 nM (inactive)
- GI50 [13]: > 19900 nM (inactive)
- GI50 [22]: > 100000 nM
- GI50 [23]: 20300 nM (inactive)
- GI50 [32]: > 100000 nM (inactive)
- GI50 [60]: > 100000 nM (inactive)
- GI50 [50]: > 19900 nM (inactive)
- GI50 [52]: > 32700 nM (inactive)
- GI50 [56]: > 19900 nM (inactive)
